According to US7074789B2, “Kinase inhibitors” (Amgen Inc., priority 1999, dated 2006):
Where two headings read alike, the source gives them in different places.

Tests used:
Format in all cases: biochemical
[1] = target: T1, AKT (Homo sapiens, UniProt Q9Y243); assay: Kinase inhibition assay (33P transfer), AKT; conditions: read-out: AKT3-1
T1 construct: Kinases are expressed as either kinase domains or full length constructs; made in house
In short: (§1)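 Radiometric readout: 33P incorporated into surface-bound poly(Glu,Tyr) 4:1 or poly(Arg,Ser) 3:1 is counted by liquid scintillation after a 0.5% phosphoric acid wash. Enzymes were GST or polyHis fusions (kinase domain or full length) from E. coli or High Five insect cells.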

[2] = target: T2, EGFR (Homo sapiens, UniProt P00533); assay: Kinase inhibition assay (33P transfer), EGFR; conditions: read-out: EGFR-1
T2 construct: Kinases are expressed as either kinase domains or full length constructs; made in house
In short: (§2)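 Steps: coat wells with poly(Glu,Tyr) 4:1 or poly(Arg,Ser) 3:1; add purified kinase, [33P]ATP and inhibitor; incubate; wash with 0.5% phosphoric acid; add liquid scintillant; count. IC50 corresponds to half-maximal reduction of bound 33P.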

[3] = target: T3, Kdr (Homo sapiens, UniProt P35968); assay: Kinase inhibition assay (33P transfer), Kdr; conditions: read-out: KDR-1
T3 construct: Kinases are expressed as either kinase domains or full length constructs; made in house
In short: as §1

[4] = target: T4, IGFR-1 (Homo sapiens, UniProt P08069); assay: Kinase inhibition assay (33P transfer), IGFR-1; conditions: Table 2, class symbols A-E
T4 construct: Kinases are expressed as either kinase domains or full length constructs; made in house

[5] = target: T5, Zap-70 (Homo sapiens, UniProt P43403); assay: Kinase inhibition assay (33P transfer), Zap-70; conditions: read-out: Zap-1
T5 construct: Kinases are expressed as either kinase domains or full length constructs; made in house
T5 sequence (P43403 1-619): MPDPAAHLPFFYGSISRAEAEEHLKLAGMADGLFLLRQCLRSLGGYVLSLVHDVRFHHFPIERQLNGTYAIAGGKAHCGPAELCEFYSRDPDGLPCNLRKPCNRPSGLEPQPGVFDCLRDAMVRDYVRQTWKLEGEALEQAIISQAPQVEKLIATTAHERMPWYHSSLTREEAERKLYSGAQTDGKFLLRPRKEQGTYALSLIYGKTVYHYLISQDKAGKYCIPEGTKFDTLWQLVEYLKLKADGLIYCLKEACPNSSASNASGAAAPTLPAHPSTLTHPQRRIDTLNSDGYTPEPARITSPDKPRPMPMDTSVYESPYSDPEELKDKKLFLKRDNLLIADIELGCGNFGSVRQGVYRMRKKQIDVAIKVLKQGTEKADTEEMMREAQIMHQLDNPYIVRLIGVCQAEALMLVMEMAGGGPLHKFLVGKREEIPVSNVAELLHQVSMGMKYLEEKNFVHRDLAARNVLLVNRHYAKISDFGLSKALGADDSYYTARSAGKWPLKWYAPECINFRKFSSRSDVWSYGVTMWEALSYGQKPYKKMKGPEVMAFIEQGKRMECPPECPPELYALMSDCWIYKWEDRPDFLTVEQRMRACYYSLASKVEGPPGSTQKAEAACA
In short: as §1

[6] = target: T6, Lck (Homo sapiens, UniProt P06239); assay: Kinase inhibition assay (33P transfer), Lck; conditions: read-out: Lck-1
T6 construct: Kinases are expressed as either kinase domains or full length constructs; made in house
In short: as §1

[7] = target: T7, c-Met (Homo sapiens, UniProt P08581); assay: Kinase inhibition assay (33P transfer), c-Met; conditions: read-out: Met-1
T7 construct: Kinases are expressed as either kinase domains or full length constructs; made in house
In short: as §2

[8] = target: T8, Itk (Homo sapiens, UniProt Q08881); assay: Kinase inhibition assay (33P transfer), Itk; conditions: read-out: Itk-1
T8 construct: Kinases are expressed as either kinase domains or full length constructs; made in house
T8 sequence (Q08881 1-620): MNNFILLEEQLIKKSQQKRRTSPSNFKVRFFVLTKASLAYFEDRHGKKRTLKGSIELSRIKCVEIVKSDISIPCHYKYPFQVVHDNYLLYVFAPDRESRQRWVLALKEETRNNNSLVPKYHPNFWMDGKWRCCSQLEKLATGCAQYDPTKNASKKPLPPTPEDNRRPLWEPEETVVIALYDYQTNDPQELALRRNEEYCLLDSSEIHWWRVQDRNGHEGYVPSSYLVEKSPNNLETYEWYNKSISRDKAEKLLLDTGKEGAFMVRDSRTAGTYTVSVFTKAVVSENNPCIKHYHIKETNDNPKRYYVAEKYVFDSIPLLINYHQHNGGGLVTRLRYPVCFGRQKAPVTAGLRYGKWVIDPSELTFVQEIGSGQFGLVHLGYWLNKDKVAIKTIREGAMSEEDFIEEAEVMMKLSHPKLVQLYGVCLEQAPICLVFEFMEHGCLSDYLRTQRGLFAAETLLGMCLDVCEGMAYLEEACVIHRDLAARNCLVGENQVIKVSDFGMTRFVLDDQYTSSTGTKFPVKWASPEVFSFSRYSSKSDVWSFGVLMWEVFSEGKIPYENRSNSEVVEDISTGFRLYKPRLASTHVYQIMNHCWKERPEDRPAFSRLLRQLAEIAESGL
In short: as §2

[9] = target: T4, IGFR-1; assay: Kinase inhibition assay (33P transfer), IGFR-1; conditions: Table 2, kinase inhibition class
[10] = target: T9, EPHB4 (Homo sapiens, UniProt P54760); assay: Kinase inhibition assay (33P transfer), EPHB4; conditions: read-out: EPHB4-1
T9 construct: Kinases are expressed as either kinase domains or full length constructs; made in house
T9 sequence (P54760 16-987): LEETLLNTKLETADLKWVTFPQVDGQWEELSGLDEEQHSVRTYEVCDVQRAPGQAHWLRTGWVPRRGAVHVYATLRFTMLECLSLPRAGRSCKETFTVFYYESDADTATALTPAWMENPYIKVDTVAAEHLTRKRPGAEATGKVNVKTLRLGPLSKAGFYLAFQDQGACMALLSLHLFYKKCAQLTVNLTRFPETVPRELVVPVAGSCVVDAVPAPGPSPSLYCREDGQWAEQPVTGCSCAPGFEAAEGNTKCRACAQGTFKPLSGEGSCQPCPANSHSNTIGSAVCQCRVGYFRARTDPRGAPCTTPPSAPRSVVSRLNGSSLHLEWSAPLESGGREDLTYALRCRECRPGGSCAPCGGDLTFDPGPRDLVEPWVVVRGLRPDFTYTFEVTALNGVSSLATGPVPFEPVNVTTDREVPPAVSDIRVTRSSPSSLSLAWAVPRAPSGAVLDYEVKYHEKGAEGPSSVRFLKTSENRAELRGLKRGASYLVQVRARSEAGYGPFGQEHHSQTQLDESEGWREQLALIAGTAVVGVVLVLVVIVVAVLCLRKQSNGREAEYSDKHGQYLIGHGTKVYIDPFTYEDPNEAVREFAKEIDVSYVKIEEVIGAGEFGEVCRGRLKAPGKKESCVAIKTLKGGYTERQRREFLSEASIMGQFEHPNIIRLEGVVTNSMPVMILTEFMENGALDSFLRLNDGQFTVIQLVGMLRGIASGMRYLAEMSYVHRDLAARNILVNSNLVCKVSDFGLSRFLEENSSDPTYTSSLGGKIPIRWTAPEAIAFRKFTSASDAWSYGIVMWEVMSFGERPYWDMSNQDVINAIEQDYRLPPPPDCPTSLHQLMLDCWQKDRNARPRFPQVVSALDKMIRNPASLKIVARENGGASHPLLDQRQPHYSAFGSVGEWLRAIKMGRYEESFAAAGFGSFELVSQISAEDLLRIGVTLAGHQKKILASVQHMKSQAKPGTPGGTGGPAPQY

[11] = target: T10, ErbB4 (Homo sapiens, UniProt Q15303); assay: Kinase inhibition assay (33P transfer), ErbB4; conditions: read-out: ErbB4-1
T10 construct: Kinases are expressed as either kinase domains or full length constructs; made in house

[12] = target: T11, Tek (Homo sapiens, UniProt Q02763); assay: Kinase inhibition assay (33P transfer), Tek; conditions: read-out: Tek-1
T11 construct: Kinases are expressed as either kinase domains or full length constructs; made in house
In short: as §2

[13] = Table 2, kinase inhibition class

T2 sequence (P00533 25-1210, species assumed): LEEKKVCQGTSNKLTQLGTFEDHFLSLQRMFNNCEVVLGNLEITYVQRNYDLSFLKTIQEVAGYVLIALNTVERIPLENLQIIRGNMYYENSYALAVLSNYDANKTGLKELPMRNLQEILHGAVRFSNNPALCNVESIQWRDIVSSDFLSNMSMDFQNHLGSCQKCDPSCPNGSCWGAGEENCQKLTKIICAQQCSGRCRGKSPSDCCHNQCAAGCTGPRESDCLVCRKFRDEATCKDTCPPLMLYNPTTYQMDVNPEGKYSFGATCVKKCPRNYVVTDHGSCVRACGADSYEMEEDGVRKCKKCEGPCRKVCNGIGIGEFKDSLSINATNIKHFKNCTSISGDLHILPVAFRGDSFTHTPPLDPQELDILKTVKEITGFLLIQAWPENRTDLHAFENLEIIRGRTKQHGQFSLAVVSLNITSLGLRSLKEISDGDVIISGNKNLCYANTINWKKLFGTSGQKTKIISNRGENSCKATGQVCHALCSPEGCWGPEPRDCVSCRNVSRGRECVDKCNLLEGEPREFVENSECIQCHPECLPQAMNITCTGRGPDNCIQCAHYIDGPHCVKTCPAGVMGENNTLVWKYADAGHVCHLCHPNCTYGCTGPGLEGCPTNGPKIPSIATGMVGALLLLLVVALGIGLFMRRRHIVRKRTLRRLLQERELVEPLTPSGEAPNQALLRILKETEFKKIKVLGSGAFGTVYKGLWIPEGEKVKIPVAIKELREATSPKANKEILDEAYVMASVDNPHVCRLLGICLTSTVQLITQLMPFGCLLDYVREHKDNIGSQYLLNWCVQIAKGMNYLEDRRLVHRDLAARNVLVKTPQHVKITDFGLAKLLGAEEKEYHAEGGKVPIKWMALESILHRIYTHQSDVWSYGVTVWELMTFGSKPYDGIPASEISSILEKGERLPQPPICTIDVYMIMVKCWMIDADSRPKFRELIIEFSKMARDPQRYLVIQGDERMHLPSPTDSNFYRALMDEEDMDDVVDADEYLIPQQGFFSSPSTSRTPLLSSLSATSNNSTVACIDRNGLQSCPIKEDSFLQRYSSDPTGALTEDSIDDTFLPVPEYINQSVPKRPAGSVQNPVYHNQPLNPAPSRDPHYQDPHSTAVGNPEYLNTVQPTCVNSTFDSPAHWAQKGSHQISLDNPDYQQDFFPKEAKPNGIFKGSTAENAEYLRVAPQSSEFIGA
T6 sequence (P06239 whole entry, species assumed, the tested form may be a part): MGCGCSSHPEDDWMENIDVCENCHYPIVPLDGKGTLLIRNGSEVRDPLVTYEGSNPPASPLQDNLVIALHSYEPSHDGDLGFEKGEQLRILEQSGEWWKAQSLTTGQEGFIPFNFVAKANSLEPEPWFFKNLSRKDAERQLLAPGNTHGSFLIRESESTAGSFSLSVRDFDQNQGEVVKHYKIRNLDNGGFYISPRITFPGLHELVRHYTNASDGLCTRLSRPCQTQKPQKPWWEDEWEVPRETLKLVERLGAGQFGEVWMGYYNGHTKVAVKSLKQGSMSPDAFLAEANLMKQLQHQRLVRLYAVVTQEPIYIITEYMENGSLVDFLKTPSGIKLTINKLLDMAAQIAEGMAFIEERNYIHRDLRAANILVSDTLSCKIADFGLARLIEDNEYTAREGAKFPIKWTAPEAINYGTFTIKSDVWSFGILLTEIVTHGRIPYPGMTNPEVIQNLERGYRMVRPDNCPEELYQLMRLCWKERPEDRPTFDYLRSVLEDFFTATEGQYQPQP
T11 sequence (Q02763 23-1124, species assumed): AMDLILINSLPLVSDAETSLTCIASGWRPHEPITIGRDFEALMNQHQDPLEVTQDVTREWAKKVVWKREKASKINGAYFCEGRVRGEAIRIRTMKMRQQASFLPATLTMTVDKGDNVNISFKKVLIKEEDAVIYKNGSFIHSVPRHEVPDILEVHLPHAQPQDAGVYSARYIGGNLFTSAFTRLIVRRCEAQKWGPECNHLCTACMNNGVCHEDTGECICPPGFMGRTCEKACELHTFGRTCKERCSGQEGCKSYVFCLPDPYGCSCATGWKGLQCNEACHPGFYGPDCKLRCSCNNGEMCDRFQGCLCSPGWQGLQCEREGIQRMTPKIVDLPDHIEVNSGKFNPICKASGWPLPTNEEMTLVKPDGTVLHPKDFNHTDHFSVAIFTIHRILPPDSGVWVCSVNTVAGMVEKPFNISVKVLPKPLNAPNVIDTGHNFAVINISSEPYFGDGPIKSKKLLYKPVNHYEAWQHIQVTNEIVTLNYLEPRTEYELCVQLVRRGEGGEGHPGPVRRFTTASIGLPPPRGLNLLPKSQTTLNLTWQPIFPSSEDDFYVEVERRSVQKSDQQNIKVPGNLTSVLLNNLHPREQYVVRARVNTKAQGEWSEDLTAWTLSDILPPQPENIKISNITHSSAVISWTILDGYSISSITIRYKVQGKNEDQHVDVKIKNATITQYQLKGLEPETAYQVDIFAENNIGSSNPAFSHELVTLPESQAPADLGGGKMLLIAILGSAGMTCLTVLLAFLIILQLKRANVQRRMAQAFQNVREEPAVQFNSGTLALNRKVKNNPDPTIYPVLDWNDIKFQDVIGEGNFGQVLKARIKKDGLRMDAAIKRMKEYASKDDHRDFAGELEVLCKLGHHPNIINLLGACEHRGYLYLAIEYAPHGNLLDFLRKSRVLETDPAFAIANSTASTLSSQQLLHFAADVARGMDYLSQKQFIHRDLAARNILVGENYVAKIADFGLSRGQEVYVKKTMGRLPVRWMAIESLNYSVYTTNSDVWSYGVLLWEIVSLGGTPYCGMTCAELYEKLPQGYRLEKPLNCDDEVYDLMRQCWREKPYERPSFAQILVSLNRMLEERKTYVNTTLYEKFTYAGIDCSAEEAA
T3 sequence (P35968 20-1356, species assumed): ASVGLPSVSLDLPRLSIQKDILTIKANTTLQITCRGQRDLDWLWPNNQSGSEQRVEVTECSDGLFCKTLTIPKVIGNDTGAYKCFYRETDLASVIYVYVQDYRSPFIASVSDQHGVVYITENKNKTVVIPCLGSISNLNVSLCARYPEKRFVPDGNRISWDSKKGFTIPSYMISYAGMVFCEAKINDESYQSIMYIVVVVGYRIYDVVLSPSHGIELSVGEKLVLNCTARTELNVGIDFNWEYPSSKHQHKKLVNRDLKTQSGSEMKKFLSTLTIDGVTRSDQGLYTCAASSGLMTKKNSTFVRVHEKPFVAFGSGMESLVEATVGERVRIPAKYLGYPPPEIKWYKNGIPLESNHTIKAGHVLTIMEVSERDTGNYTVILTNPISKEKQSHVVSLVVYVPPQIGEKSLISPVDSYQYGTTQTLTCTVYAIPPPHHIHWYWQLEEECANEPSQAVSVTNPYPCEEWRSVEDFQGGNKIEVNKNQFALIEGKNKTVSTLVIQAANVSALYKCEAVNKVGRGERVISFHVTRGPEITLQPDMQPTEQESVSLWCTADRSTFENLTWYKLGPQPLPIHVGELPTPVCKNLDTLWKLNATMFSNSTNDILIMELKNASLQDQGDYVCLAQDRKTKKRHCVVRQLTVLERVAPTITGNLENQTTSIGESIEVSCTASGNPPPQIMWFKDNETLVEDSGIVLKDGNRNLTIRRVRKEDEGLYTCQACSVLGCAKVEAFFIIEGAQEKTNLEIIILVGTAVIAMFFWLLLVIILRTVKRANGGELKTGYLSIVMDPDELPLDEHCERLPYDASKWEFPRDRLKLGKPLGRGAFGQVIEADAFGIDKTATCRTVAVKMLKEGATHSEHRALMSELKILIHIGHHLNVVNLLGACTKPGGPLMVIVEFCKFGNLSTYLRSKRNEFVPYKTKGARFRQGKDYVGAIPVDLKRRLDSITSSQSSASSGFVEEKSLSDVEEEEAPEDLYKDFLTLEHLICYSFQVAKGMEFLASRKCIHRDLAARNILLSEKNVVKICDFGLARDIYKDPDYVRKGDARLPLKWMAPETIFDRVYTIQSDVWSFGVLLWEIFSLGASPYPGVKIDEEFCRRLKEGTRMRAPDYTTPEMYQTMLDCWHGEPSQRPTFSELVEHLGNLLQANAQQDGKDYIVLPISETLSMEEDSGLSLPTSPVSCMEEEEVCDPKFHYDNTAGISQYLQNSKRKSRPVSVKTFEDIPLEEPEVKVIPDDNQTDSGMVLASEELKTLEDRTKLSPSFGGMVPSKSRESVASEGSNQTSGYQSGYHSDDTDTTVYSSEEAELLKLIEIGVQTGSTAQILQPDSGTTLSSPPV
T1 sequence (Q9Y243 whole entry, the tested form may be a part): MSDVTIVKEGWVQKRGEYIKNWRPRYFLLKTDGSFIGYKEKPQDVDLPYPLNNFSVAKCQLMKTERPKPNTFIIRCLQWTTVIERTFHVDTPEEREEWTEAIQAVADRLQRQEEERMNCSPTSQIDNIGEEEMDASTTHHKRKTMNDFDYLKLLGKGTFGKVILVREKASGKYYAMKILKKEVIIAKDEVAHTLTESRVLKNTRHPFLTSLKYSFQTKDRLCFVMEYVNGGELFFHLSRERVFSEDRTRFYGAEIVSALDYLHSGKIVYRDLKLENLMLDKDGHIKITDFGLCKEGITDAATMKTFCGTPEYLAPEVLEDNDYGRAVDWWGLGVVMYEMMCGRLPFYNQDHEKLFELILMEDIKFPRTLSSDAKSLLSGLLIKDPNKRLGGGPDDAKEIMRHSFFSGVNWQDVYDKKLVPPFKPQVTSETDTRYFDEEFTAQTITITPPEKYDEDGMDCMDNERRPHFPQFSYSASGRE

Row | Structure (SMILES) | IC50 ([1]; Table 2, class symbols A-E) | IC50 ([2]; Table 2, class symbols A-E) | IC50 ([3]; Table 3, class symbols) | IC50 [4] | IC50 ([5]; Table 3, class symbols) | IC50 ([6]; Table 3, class symbols) | IC50 ([7]; Table 2, class symbols A-E) | IC50 ([8]; Table 3, class symbols) | IC50 [1, 13] | IC50 [9] | IC50 [10] | IC50 [2, 13] | IC50 ([3]; Table 3) | IC50 ([5]; Table 3) | IC50 ([6]; Table 3) | IC50 [7, 13] | IC50 ([8]; Table 3) | IC50 [11] | IC50 [12]
1 | OCc1cccc(Nc2ncnc(-c3cccnc3Nc3ccccc3)n2)c1 [Compound 1115] | > 12.1 µM | 1.08 to 6.48 µM | < 1.08 µM | > 12.1 µM | > 12.1 µM | 1.08 to 6.48 µM | 1.08 to 6.48 µM | > 12.1 µM | – | – | – | – | – | – | – | – | – | – | –
2 | Cc1ccc2c(c1)CCCN2c1ncnc(NCc2ccc(C(=O)O)cc2)n1 [Compound 853] | > 12 µM | > 12 µM | > 12 µM | > 12 µM | > 12 µM | > 12 µM | > 12 µM | > 12 µM | – | – | – | – | – | – | – | – | – | – | –
3 | COc1ccc2[nH]cc(CCNc3ncnc(Nc4ccc(OC)c(OC)c4)n3)c2c1 [Compound 855] | > 10.7 µM | > 10.7 µM | > 10.7 µM | > 10.7 µM | > 10.7 µM | > 10.7 µM | > 10.7 µM | > 10.7 µM | – | – | – | – | – | – | – | – | – | – | –
4 | CCOC(=O)Cc1ccc(Nc2ncnc(Nc3cc(OC)c(OC)c(OC)c3)n2)cc1 [Compound 62] | – | – | – | – | – | – | – | – | > 10.2 µM | 0.91 to 5.46 µM | > 10.2 µM | < 0.91 µM | 0.91 to 5.46 µM | > 10.2 µM | 0.91 to 5.46 µM | 7.96 to 10.2 µM | > 10.2 µM | > 10.2 µM | > 10.2 µM
5 | CC(C)Nc1ncccc1-c1ncnc(Nc2ccc3[nH]ncc3c2)n1 [Compound 1116] | 10.1 to 13 µM | 1.15 to 6.93 µM | 6.93 to 10.1 µM | 1.15 to 6.93 µM | > 13 µM | 1.15 to 6.93 µM | 1.15 to 6.93 µM | > 13 µM | – | – | – | – | – | – | – | – | – | – | –
6 | COc1ccc(Nc2ncnc(N(C)c3ccccc3OC(F)(F)F)n2)cc1OC [Compound 867] | 0.949 to 5.7 µM | 0.949 to 5.7 µM | 8.31 to 10.7 µM | > 10.7 µM | > 10.7 µM | 0.949 to 5.7 µM | < 0.949 µM | > 10.7 µM | – | – | – | – | – | – | – | – | – | – | –
7 | COc1ccc(Nc2ncnc(Nc3cccc(Br)c3)n2)cc1OC [Compound 118] | – | – | – | – | – | – | – | – | > 11.2 µM | 0.994 to 5.97 µM | 0.994 to 5.97 µM | < 0.994 µM | > 11.2 µM | > 11.2 µM | 8.7 to 11.2 µM | > 11.2 µM | 0.994 to 5.97 µM | > 11.2 µM | > 11.2 µM
8 | Cc1ccc2c(c1)CCCN2c1ncnc(Nc2c(C)ccc3ccccc23)n1 [Compound 854] | > 11.8 µM | 1.05 to 6.29 µM | > 11.8 µM | > 11.8 µM | > 11.8 µM | > 11.8 µM | > 11.8 µM | > 11.8 µM | – | – | – | – | – | – | – | – | – | – | –
9 | COc1ccc(Nc2ncnc(Nc3ccccc3C)n2)cc1OC [Compound 111] | – | – | – | – | – | – | – | – | > 13.3 µM | < 1.19 µM | > 13.3 µM | < 1.19 µM | 1.19 to 7.11 µM | > 13.3 µM | 1.19 to 7.11 µM | > 13.3 µM | > 13.3 µM | > 13.3 µM | > 13.3 µM
10 | COc1cc(Nc2ncnc(N(CCC(C)C)c3ccc(Cl)cc3)n2)cc(OC)c1OC [Compound 51] | – | – | – | – | – | – | – | – | > 9.83 µM | > 9.83 µM | 0.873 to 5.24 µM | < 0.873 µM | 0.873 to 5.24 µM | > 9.83 µM | 0.873 to 5.24 µM | 0.873 to 5.24 µM | > 9.83 µM | 5.24 to 7.64 µM | 0.873 to 5.24 µM
11 | COc1ccc(Nc2ncnc(Nc3ccc(OCc4ccccc4)cc3)n2)cc1OC [Compound 157] | – | – | – | – | – | – | – | – | 8.15 to 10.5 µM | > 10.5 µM | 0.931 to 5.59 µM | 0.931 to 5.59 µM | 0.931 to 5.59 µM | 5.59 to 8.15 µM | > 10.5 µM | 8.15 to 10.5 µM | > 10.5 µM | > 10.5 µM | 5.59 to 8.15 µM
